Experimental data as given in publication PMC11783400, “Assessment of Potential Drug–Drug Interactions for Novel Oral Melanocortin‐1 Receptor Agonist Dersimelagon” (Pharmacology Research & Perspectives, 2025).

Target: T1, OATP1B3 (Homo sapiens, UniProt Q9NPD5)
T1 construct: gene SLCO1B3; expressed in HEK293 cells
T1 sequence (Q9NPD5 1-702): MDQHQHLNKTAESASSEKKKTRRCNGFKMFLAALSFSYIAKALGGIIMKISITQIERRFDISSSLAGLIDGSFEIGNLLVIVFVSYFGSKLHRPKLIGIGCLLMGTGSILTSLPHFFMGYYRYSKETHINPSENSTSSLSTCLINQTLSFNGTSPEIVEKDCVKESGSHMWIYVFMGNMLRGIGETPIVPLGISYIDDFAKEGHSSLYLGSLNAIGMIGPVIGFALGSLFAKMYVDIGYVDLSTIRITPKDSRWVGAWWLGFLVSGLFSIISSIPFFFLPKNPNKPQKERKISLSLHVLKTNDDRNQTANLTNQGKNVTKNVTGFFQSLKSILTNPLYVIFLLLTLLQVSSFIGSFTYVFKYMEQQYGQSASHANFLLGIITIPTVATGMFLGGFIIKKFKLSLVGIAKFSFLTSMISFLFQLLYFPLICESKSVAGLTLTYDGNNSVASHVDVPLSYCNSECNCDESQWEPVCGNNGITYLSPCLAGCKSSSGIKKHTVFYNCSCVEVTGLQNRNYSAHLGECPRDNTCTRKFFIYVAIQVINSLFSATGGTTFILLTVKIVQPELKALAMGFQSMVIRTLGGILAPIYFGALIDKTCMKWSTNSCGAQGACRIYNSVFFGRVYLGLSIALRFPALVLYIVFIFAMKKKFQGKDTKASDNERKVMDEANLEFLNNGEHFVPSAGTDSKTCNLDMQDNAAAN
Assay: uptake inhibition in HEK293 cells expressing the transporter
Format: cell-based
From the text: uptake inhibition in HEK293 cells expressing the transporter on OATP1B3

IC50: 47.1 nM
SMILES: COC[C@H]1CN(C(=O)[C@]2(F)CN(C3CCCC3)C[C@H]2c2ccc(OC)cc2)C[C@@H]1c1ccc(C(F)(F)F)cc1N1CCC(C(=O)O)CC1 [dersimelagon]
